Measured values: PMC11435058, “Synthesis of New Thiazole-Privileged Chalcones as Tubulin Polymerization Inhibitors with Potential Anticancer Activities” (Pharmaceuticals, 2024)

Tests used:
[1] = test system: RPMI-8226; test: NCI-60 anticancer screen (SRB; single dose and five doses); conditions: Homo sapiens; for activity at 10 µM: RPMI-8226, 48 h, read-out: Growth Percentage; for GI50: RPMI-8226; for CC50: RPMI-8226, read-out: LC50; for IC (TGI): RPMI-8226, read-out: TGI
[2] = test system: A549/ATCC; test: as above; conditions: Homo sapiens; for activity at 10 µM: A549, 48 h, read-out: Growth Percentage; for GI50: A549; for CC50: A549, read-out: LC50; for IC (TGI): A549, read-out: TGI
[3] = test system: NCI-H460; test: as above; conditions: Homo sapiens; for activity at 10 µM: NCI-H460, 48 h, read-out: Growth Percentage; for GI50: NCI-H460; for CC50: NCI-H460, read-out: LC50; for IC (TGI): NCI-H460, read-out: TGI
[4] = test system: KM12; test: as above; conditions: Homo sapiens; for activity at 10 µM: KM12, 48 h, read-out: Growth Percentage; for GI50: KM12; for CC50: KM12, read-out: LC50; for IC (TGI): KM12, read-out: TGI
[5] = test system: LOX IMVI; test: as above; conditions: Homo sapiens; for activity at 10 µM: 48 h, read-out: Growth Percentage; for CC50: read-out: LC50; for IC (TGI): read-out: TGI
[6] = test system: OVCAR-5; test: as above; conditions: Homo sapiens; for activity at 10 µM: OVCAR-5, 48 h, read-out: Growth Percentage; for GI50: OVCAR-5; for CC50: OVCAR-5, read-out: LC50; for IC (TGI): OVCAR-5, read-out: TGI
[7] = test system: NCI/ADR-RES; test: as above; conditions: Homo sapiens; for activity at 10 µM: 48 h, read-out: Growth Percentage; for CC50: read-out: LC50; for IC (TGI): read-out: TGI
[8] = test system: SR; test: as above; conditions: Homo sapiens; for activity at 10 µM: 48 h, read-out: Growth Percentage; for CC50: read-out: LC50; for IC (TGI): read-out: TGI

Structure (SMILES)	melting point [°C]	activity at 10 µM [1] [%]	activity at 10 µM [2] [%]	activity at 10 µM [3] [%]	activity at 10 µM [4] [%]	activity at 10 µM [5] [%]	activity at 10 µM [6] [%]	activity at 10 µM [7] [%]	activity at 10 µM [8] [%]	GI50 [1] [µM]	CC50 [1] [µM]	IC (TGI) [1] [µM]	GI50 [8] [µM]	CC50 [8] [µM]	IC (TGI) [8] [µM]	GI50 [2] [µM]	CC50 [2] [µM]	IC (TGI) [2] [µM]	GI50 [3] [µM]	CC50 [3] [µM]	other results
COc1ccc(/C=C/C(=O)c2sc(=S)[nH]c2C)c(OC)c1 [2n, (E)-3-(2,4-Dimethoxyphenyl)-1-(4-Methyl-2-Thioxo-2,3-Dihydrothiazol-5-yl)Prop-2-En-1-One]	255 to 257	35.6	90	89.8	73.4	57.8	120	48													
COc1ccc(/C=C/C(=O)c2sc(=S)[nH]c2C)cc1OC [2o, (E)-3-(3,4-Dimethoxyphenyl)-1-(4-Methyl-2-Thioxo-2,3-Dihydrothiazol-5-yl)Prop-2-En-1-One]	245 to 247	18.6	64.6	40	42.2	26.9	131	26.9	32.5												
COc1ccc(/C=C/C(=O)c2sc(=S)[nH]c2C)cc1 [2l, (E)-3-(4-Methoxyphenyl)-1-(4-Methyl-2-Thioxo-2,3-Dihydrothiazol-5-yl)Prop-2-En-1-One]	246 to 248	19.6	82.9	85.6	42.2	44.2	145	76.4	43.7												
Cc1[nH]c(=S)sc1C(=O)/C=C/c1ccc(F)cc1 [2c, (E)-3-(4-Fluorophenyl)-1-(4-Methyl-2-Thioxo-2,3-Dihydrothiazol-5-yl)Prop-2-En-1-One]		2.32	56	39.3	6.85	8.91	119	-10.8	18.3	2.85	> 100	> 100	3.19	> 100	> 100	12.4	57.7	26.8	15.2	83.3	IC (TGI) [3]: 35.6 µM; GI50 [4]: 4.28 µM; CC50 [4]: 41 µM; IC (TGI) [4]: 15.4 µM; GI50 [5]: 3.26 µM; CC50 [5]: 36.6 µM; IC (TGI) [5]: 12.7 µM; GI50 [6]: 15.6 µM; CC50 [6]: 57.7 µM; IC (TGI) [6]: 30 µM; GI50 [7]: 5.92 µM; CC50 [7]: 85 µM; IC (TGI) [7]: 24.9 µM
Cc1[nH]c(=S)sc1C(=O)/C=C/c1ccc([N+](=O)[O-])cc1 [2i, (E)-1-(4-Methyl-2-Thioxo-2,3-Dihydrothiazol-5-yl)-3-(4-Nitrophenyl)Prop-2-En-1-One]		-7.9	75.7	11.3	-72.5	-86.2	110	-4.45	-4.81	3.55	> 100	> 100	2.86	> 100	> 100	17	69	34.2	15.9	72.5	IC (TGI) [3]: 34 µM; GI50 [4]: 3.8 µM; CC50 [4]: 40 µM; IC (TGI) [4]: 13.6 µM; GI50 [5]: 1.85 µM; CC50 [5]: 8.91 µM; IC (TGI) [5]: 4.06 µM; GI50 [6]: 17.8 µM; CC50 [6]: 58.2 µM; IC (TGI) [6]: 32.2 µM; GI50 [7]: 14.9 µM; CC50 [7]: 82.8 µM; IC (TGI) [7]: 35.2 µM
Cc1[nH]c(=S)sc1C(=O)/C=C/c1ccc(N(C)C)cc1 [2k, (E)-3-(4-(Dimethylamino)Phenyl)-1-(4-Methyl-2-Thioxo-2,3-Dihydrothiazol-5-yl)Prop-2-En-1-One]	249 to 251	41.5	68.1	85.7	62.6	60.2	142	56.9	57.4												
